According to US7879857B2, “6-substituted 2-quinolinones and 2-quinoxalinones as poly (adp-ribose) polymerase inhibitors” (Janssen Pharmaceutica NV, priority 2003, dated 2011):

How the values were obtained:
[1] = rabbits, cited from earlier work
[2] = rats with hapten-induced colitis; cited from earlier work
[3] = target: T1, PARP-1 enzyme (Homo sapiens, UniProt P09874); experiment: In vitro Scintillation Proximity Assay (SPA) for PARP-1 inhibitory activity; assay type: biochemical; conditions: [3H]-NAD+ as ADP-ribosyl donor, biotinylated histones, nicked DNA; read-out: In vitro SPA pIC50 (converted)
T1 construct: made in house
T1 sequence (P09874 whole entry): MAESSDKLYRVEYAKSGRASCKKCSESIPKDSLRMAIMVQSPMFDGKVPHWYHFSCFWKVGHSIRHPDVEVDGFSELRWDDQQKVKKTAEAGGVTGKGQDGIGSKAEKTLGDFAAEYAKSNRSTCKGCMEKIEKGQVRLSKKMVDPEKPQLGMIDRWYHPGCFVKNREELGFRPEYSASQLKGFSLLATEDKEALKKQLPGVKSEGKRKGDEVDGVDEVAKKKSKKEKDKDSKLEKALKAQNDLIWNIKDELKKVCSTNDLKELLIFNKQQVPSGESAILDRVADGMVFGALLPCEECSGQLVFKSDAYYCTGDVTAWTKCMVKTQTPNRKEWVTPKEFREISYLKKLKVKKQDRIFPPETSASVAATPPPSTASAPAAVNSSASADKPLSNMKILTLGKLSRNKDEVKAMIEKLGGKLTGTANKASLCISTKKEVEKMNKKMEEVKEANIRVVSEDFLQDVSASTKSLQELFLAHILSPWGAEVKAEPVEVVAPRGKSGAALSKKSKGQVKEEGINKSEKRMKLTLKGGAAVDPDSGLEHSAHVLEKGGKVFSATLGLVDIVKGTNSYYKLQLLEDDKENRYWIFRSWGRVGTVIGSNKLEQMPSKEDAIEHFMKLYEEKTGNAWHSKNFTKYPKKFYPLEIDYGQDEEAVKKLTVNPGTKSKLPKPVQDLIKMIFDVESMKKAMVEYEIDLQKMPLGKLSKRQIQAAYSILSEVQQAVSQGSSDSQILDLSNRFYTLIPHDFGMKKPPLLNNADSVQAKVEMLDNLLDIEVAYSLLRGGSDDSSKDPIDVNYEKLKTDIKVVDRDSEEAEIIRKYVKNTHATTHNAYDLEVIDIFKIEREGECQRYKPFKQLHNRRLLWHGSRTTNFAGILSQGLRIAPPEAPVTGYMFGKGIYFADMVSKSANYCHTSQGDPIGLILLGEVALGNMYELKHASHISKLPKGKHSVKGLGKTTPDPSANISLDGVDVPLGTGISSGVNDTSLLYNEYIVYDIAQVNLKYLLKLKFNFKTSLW
Protocol: Pharmacological Example In Vitro Scintillation Proximity Assay (SPA) for PARP-1 Inhibitory Activity
Compounds of the present invention were tested in an in vitro assay based on SPA technology (proprietary to Amersham Phannacia Biotech).
In principle, the assay relies upon the well established SPA technology for the detection of poly(ADP-ribosyl)ation of biotinylated target proteins, i.e histones. This ribosylation is induced using nicked DNA activated PARP-1 enzyme and [^3H]-nicotinamide adenine dinucleotide ([^3H]-NAD^+) as ADP-ribosyl donor.
As inducer of PARP-1 enzyme activity, nicked DNA was prepared. For this, 25 mg of DNA (supplier: Sigma) was dissolved in 25 ml DNAse buffer (10 mM Tris-HCI, pH 7.4; 0.5 mg/ml Bovine Serum Albumine (BSA); 5 MM MgCl2.6H2O and 1 mM KCl) to which 50 μl DNAse solution (1 mg/ml in 0.15 M NaCl) was added. After an incubation of 90 min. at 37° C., the reaction was terminated by adding 1.45 g NaCl, followed by a further incubation at 58° C. for 15 min. The reaction mixture was cooled on ice and dialysed at 4° C. for respectively 1.5 and 2 hours against 1.51 of 0.2 M KCl, and twice against 1.51 of 0.01 M KCl for 1.5 and 2 h respectively. The mixture was aliquoted and stored at −20° C. Histones (1 mg/ml, type II-A, supplier: Sigma) were biotinylated using the biotinylation kit of Amersham and stored aliquoted at −20° C. A stock solution of 100 mg/ml SPA poly(vinyl toluene) (PVT) beads (supplier: Amersham) was made in PBS. A stock solution of [^3H]-NAD^+ was made by adding 120 μl of [^3H]-NAD^+ (0.1 mCi/ml, supplier: NEN) to 6 ml incubation buffer (50 mM Tris/HCl, pH 8; 0.2 mM DTT; 4 mM MgCl2). A solution of 4 mM NAD^+ (supplier: Roche) was made in incubation buffer (from a 100 mM stock solution in water stored at −20° C.). The PARP-1 enzyme was produced using art known techniques, i.e. cloning and expression of the protein starting from human liver cDNA. Information concerning the used protein sequence of the PARP-1 enzyme including literature references can be found in the Swiss-Prot database under primary accession number P09874. Biotinylated histones and PVT-SPA beads were mixed and pre-incubated for 30 min. at room temperature. PARP-1 enzyme (concentration was lot dependent) was mixed with the nicked DNA and the mixture was pre-incubated for 30 min. at 4° C. Equal parts of this histones/PVT-SPA beads solution and PARP-1 enzyme/DNA solution were mixed and 75 μl of this mixture together with 1 μl of compound in DMSO and 25 μl of [^3H]-NAD^+ was added per well into a 96-well microtiterplate. The final concentrations in the incubation mixture were 2 μg/ml for the biotinylated histones, 2 mg/ml for the PVT-SPA beads, 2 μg/ml for the nicked DNA and between 5-10 μg/ml for the PARP-1 enzyme. After incubation of the mixture for 15 min. at room temperature, the reaction was terminated by adding 100 μl of 4 mM NAD^+ in incubation buffer (final concentration 2 mM) and plates were mixed.
The beads were allowed to sediment for at least 15 min. and plates transferred to a TopCountNXTT™ (Packard) for scintillation counting, values were expressed as counts per minute (cpm). For each experiment, controls (containing PARP-1 enzyme and DMSO without compound), a blank incubation (containing DMSO but no PARP-1 enzyme or compound) and samples (containing PARP-1 enzyme and compound dissolved in DMSO) were run in parallel. All compounds tested were dissolved and eventually further diluted in DMSO. […] The control sample represented maximal PARP-1 enzyme activity. For each sample, the amount of cpm was expressed as a percentage of the mean cpm value of the controls. When appropriate, IC50-values (concentration of the drug, needed to reduce the PARP-1 enzyme activity to 50% of the control) were computed using linear interpolation between the experimental points just above and below the 50% level. Herein the effects of test compounds are expressed as pIC50(the negative log value of the IC50-value). […]

[4] = target: T1, PARP-1 enzyme; experiment: In vitro filtration assay for PARP-1 inhibitory activity; assay type: biochemical; conditions: [32P]-NAD as ADP-ribosyl donor, histones, nicked DNA; read-out: In vitro filtration assay pIC50 (converted)
Protocol: In Vitro Filtration Assay for PARP-1 Inhibitory Activity
Compounds of the present invention were tested in an in vitro filtration assay assessing PARP-1 activity (triggered in the presence of nicked DNA) by means of its histone poly (ADP-ribosyl)ation activity using [^32P]-NAD as ADP-ribosyl donor. The radioactive ribosylated histones were precipitated by trichIoroacetic acid (TCA) in 96-well filterplates and the incorporated [^32P] measured using a scintillation counter
A mixture of histones (stock solution: 5 mg/ml in H2O), NAD^+ (stock solution: 100 mM in H2O), and [^32P]-NAD^+ in incubation buffer (50 mM Tris/HCl, pH 8; 0.2 mM DTT; 4 mM MgCl2) was made. A mixture of the PARP-1 enzyme (5-10 μg/ml) and nicked DNA was also made. The nicked DNA was prepared as described in the in vitro SPA for PARP-1 inhibitory activity. Seventy-five μl of the PARP-1 enzyme/DNA mixture together with 1 μl of compound in DMSO and 25 μl of histones-NAD^+/[^32P]-NAD^+ mixture was added per well of a 96-well filterplate (0.45 μm, supplier Millipore). The final concentrations in the incubation mixture were 2 μg/ml for the histones, 0.1 mM for the NAD^+, […] (0.5 μC) for the [^32P]-NAD^+ and 2 μg/ml for the nicked DNA. Plates were incubated for 15 min. at room temperature and the reaction was terminated by the addition of 10 μl ice cold 100% TCA followed by the addition of 10 μl ice-cold BSA solution (1% in H2O). The protein fraction was allowed to precipitate for 10 min. at 4° C. and plates were vacuum filtered. The plates were subsequently washed with, for each well, 1 ml of 10% ice cold TCA, 1 ml of 5% ice cold TCA and 1 ml of 5% TCA at room temperature. Finally 100 μl of scintillation solution (Microscint 40, Packard) was added to each well and the plates were transferred to a TopCountNXT™ (supplier: Packard) for scintillation counting and values were expressed as counts per minute (cpm). For each experiment, controls (containing PARP-1 enzyme and DMSO without compound), a blank incubation (containing DMSO but no PARP-1 enzyme or compound) and samples (containing PARP-1 enzyme and compound dissolved in DMSO) were run in parallel. All compounds tested were dissolved and eventually further diluted in DMSO. […] The control sample represented maximal PARP-1 enzyme activity. For each sample, the amount of cpm was expressed as a percentage of the mean cpm value of the controls. When appropriate, IC50-values (concentration of the drug, needed to reduce the PARP-1 enzyme activity to 50% of the control) were computed using linear interpolation between the experimental points just above and below the 50% level. Herein the effects of test compounds are expressed as pIC50 (the negative log value of the IC50-value). As a reference compound, 4-amino-1,8-naphthalimide was included to validate the filtration assay.

Compound | IC50 [3] | IC50 [4] | further results
Oc1cccc2c(O)nccc12 [1,5-dihydroxyisoquinoline] | – | – | reduction in infarct size ([1]; single injection 1 mg/kg): 38-48%
NC(=O)c1cccc(N)c1 [3-amino-benzamide] | – | – | effect on inflammatory response, morphology and energetic status of the distal colon [2]: reduced the inflammatory response and restored the morphology and the energetic status of the distal colon; reduction in infarct size in the heart ([1]; single injection 10 mg/kg, one minute before occlusion or one minute before reperfusion): 32-42%
CCc1nc2cc(C(NC=O)C(C)C)ccc2[nH]c1=O (stereo not shown) [Compound 1] | 221 nM | – | melting point: 204 °C
Cc1cc2cc(C(C(C)C)n3ccnc3)ccc2[nH]c1=O (stereo not shown) [Compound 2] | 522 nM | 5350 nM | melting point: 211.4 °C
CCc1cc2cc(C(=O)CN(C)C)ccc2[nH]c1=O [Compound 3] | 259 nM | 2590 nM | melting point: 180 °C
Cc1cc2cc(C(CCN(C)C)c3ccco3)ccc2[nH]c1=O (stereo not shown) [Compound 4] | 1040 nM | 7570 nM | –
CCc1cc2cc(C(O)C(CC)CC)ccc2[nH]c1=O (stereo not shown) [Compound 5] | 156 nM | 638 nM | –
Cc1cc2cc(C(CCc3ccccc3)NC=O)ccc2[nH]c1=O (stereo not shown) [Compound 6] | 769 nM | 10000 nM | melting point: 221.3 °C
CCc1cc2cc(C(O)CN(C)C)ccc2[nH]c1=O (stereo not shown) [Compound 7] | 212 nM | 773 nM | melting point: 131 °C
CCOC(=O)Cc1ccc2[nH]c(=O)c(CC)nc2c1 [Compound 8] | 975 nM | – | –
CCc1nc2cc(C(=O)C(C)C)ccc2[nH]c1=O [Compound 9] | 743 nM | – | –
CCc1nc2cc(C(NCCN3CCC(C(=O)c4ccc(F)cc4)CC3)C(C)C)ccc2[nH]c1=O (stereo not shown) [Compound 10] | 740 nM | – | –
CCc1cc2cc(CCNCCCN3CCCCC3)ccc2[nH]c1=O [Compound 11] | 327 nM | – | –
CCc1cc2cc(CCNCCCN(C)Cc3ccccc3)ccc2[nH]c1=O [Compound 12] | 687 nM | – | –
CCc1nc2cc(C(NCCCN3CCCCC3)C(C)C)ccc2[nH]c1=O (stereo not shown) [Compound 13] | 368 nM | – | –
CCc1nc2cc(C(NCCCN(C)Cc3ccccc3)C(C)C)ccc2[nH]c1=O (stereo not shown) [Compound 14] | 499 nM | – | –
Cc1cc2cc(C(NCCCN3CCCCC3)C(C)C)ccc2[nH]c1=O (stereo not shown) [Compound 15] | 1260 nM | 3620 nM | –
Cc1cc2cc(C(O)(CCN(C)C)c3ccccn3)ccc2[nH]c1=O (stereo not shown) [Compound 16] | 470 nM | 2160 nM | –
CCc1cc2cc(C(O)C3CC=CCC3)ccc2[nH]c1=O (stereo not shown) [Compound 17] | 198 nM | 1470 nM | –
Cc1cc2cc(C(C)NC=O)ccc2[nH]c1=O (stereo not shown) [Compound 18] | 1020 nM | 6370 nM | –
CCc1nc2cc(C(O)C(C)C)ccc2[nH]c1=O (stereo not shown) [Compound 19] | 746 nM | – | –
CCc1nc2cc(C(C(C)C)n3cncn3)ccc2[nH]c1=O (stereo not shown) [Compound 20, 3-ethyl-6-[2-methyl-1-(1H-1,2,4-triazol-1-yl)propyl]-2(1H)-quinoxalinone] | 438 nM | 2280 nM | –
CCc1nc2cc(C(C(C)C)n3ccnc3)ccc2[nH]c1=O (stereo not shown) [Compound 21, 3-ethyl-6-[1-(1H-imidazol-1-yl)-2-methylpropyl]-2(1H)-quinoxalinone] | 227 nM | 1100 nM | –
CC(C)C(c1ccc2[nH]c(=O)c(-c3cccs3)nc2c1)n1cncn1 (stereo not shown) [Compound 22, 6-[2-methyl-1-(1H-1,2,4-triazol-1-yl)propyl]-3-(2-thienyl)-2(1H)-quinoxalinone] | 838 nM | 4330 nM | –
CC(C)C(c1ccc2[nH]c(=O)c(-c3ccsc3)nc2c1)n1cncn1 (stereo not shown) [Compound 23, 6-[2-methyl-1-(1H-1,2,4-triazol-1-yl)propyl]-3-(thienyl)-2(1H)-quinoxalinone] | 1430 nM | 7130 nM | –
CC(C)C(c1ccc2[nH]c(=O)c(-c3ccsc3)nc2c1)n1ccnc1 (stereo not shown) [Compound 24, 6-[1-(1H-imidazol-1-yl)-2-methylpropyl]-3-(3-thienyl)-2(1H)-quinoxalinone] | 561 nM | 4860 nM | –
CCCCC(c1ccc2[nH]c(=O)c(C)nc2c1)n1ccnc1 (stereo not shown) [Compound 25, 6-[1-(1H-imidazol-1-yl)pentyl]-3-methyl-2(1H)-quinoxalinone] | 1000 nM | 4630 nM | –
